Test results as given in the supplement of paper PMC13380429.
Where a name gives a salt, the structure may show the parent alone.

Tests used:
Settings in all cases: 72 h
U2OS [1] = assay: cell viability relative to DMSO; higher = less toxic
Caco-2 [2] = assay: as above
Vero E6 [3] = assay: as above
HepG2 [4] = assay: as above
Calu-3 [5] = assay: as above
U2OS [6] = assay: drug sensitivity score (DSS) for viability; higher = more toxic; extreme values may be limits of the assay
Caco-2 [7] = assay: as above
Vero E6 [8] = assay: as above
HepG2 [9] = assay: as above
Calu-3 [10] = assay: as above
U2OS [11] = assay: relative viability EC50 (midpoint between 100% and the lowest measured viability); higher = less toxic
Caco-2 [12] = assay: as above
Vero E6 [13] = assay: as above
HepG2 [14] = assay: as above
Calu-3 [15] = assay: as above

| Structure (SMILES) | cell viability (U2OS [1]; 1 nM) | cell viability (U2OS [1]; 10 nM) | cell viability (U2OS [1]; 100 nM) | cell viability (U2OS [1]; 1000 nM) | cell viability (U2OS [1]; 10000 nM) | cell viability (Caco-2 [2]; 1 nM) | cell viability (Caco-2 [2]; 10 nM) | cell viability (Caco-2 [2]; 100 nM) | cell viability (Caco-2 [2]; 1000 nM) | cell viability (Caco-2 [2]; 10000 nM) | cell viability (Vero E6 [3]; 1 nM) | cell viability (Vero E6 [3]; 10 nM) | cell viability (Vero E6 [3]; 100 nM) | cell viability (Vero E6 [3]; 1000 nM) | cell viability (Vero E6 [3]; 10000 nM) | cell viability (HepG2 [4]; 1 nM) | cell viability (HepG2 [4]; 10 nM) | cell viability (HepG2 [4]; 100 nM) | cell viability (HepG2 [4]; 1000 nM) | cell viability (HepG2 [4]; 10000 nM) | cell viability (Calu-3 [5]; 1 nM) | cell viability (Calu-3 [5]; 10 nM) | cell viability (Calu-3 [5]; 100 nM) | cell viability (Calu-3 [5]; 1000 nM) | cell viability (Calu-3 [5]; 10000 nM) | drug sensitivity score (U2OS [6]) | drug sensitivity score (Caco-2 [7]) | drug sensitivity score (Vero E6 [8]) | drug sensitivity score (HepG2 [9]) | drug sensitivity score (Calu-3 [10]) | relative viability EC50 (U2OS [11]) | relative viability EC50 (Caco-2 [12]) | relative viability EC50 (Vero E6 [13]) | relative viability EC50 (HepG2 [14]) | relative viability EC50 (Calu-3 [15]) |
| --- | --- | --- | --- | --- | --- | --- | --- | --- | --- | --- | --- | --- | --- | --- | --- | --- | --- | --- | --- | --- | --- | --- | --- | --- | --- | --- | --- | --- | --- | --- | --- | --- | --- | --- | --- |
| Cc1cnc(Nc2ccc(N3CCN(C)CC3)cc2)nc1Nc1cccc(S(=O)(=O)NC(C)(C)C)c1 | 92.1% | 93.7% | 100% | 75.3% | 0.5% | 96.3% | 101% | 98.4% | 64.3% | 9.6% | 93% | 105% | 94.9% | 90.9% | 0.2% | 96.2% | 105% | 97.2% | 57.9% | 28.9% | 93% | 95.1% | 92.6% | 86.1% | 13.8% | 9.3 | 9.7 | 7 | 9 | 7.1 | 1.55 µM | 1.2 µM | 2.41 µM | 0.8 µM | 1.92 µM |
| CNCCc1cnc[nH]1 [N-alpha-methylhistamine-dihydrochloride] | 97.4% | 105% | 101% | 102% | 98% | 94.5% | 104% | 92.5% | 98.2% | 102% | 99.4% | 91.6% | 96.7% | 91.5% | 97.1% | 104% | 95.9% | 103% | 87.7% | 112% | 101% | 97.2% | 91.5% | 109% | 94.5% | 0 | 0 | 0 | 0 | 0 | > 10 µM | > 10 µM | > 10 µM | > 10 µM | > 10 µM |
| Ic1cc(-c2ccccc2)ncn1 [4-iodo-6-phenylpyrimidine] | 102% | 97.2% | 102% | 99.1% | 102% | 93.8% | 101% | 104% | 97.5% | 98% | 105% | 102% | 97.7% | 105% | 95.5% | 100% | 107% | 96.8% | 105% | 98.8% | 100% | 105% | 105% | 87.2% | 104% | 0 | 0 | 0 | 0 | 0 | > 10 µM | > 10 µM | > 10 µM | > 10 µM | > 10 µM |
| CC(=O)OCC1=C(C(=O)O)N2C(=O)[C@@H](NC(=O)CS/C(=N/C(C)C)NC(C)C)[C@H]2SC1 [cefathiamidine] | 94.3% | 94.3% | 97.9% | 98.8% | 102% | 97.9% | 96.5% | 113% | 107% | 96.6% | 99.7% | 101% | 95.1% | 102% | 109% | 94.6% | 89.3% | 96.8% | 98.1% | 105% | 97.3% | 107% | 107% | 108% | 102% | 0 | 0 | 0 | 0 | 0 | > 10 µM | > 10 µM | > 10 µM | > 10 µM | > 10 µM |
